Results reported in ChEMBL document CHEMBL3639215, “Piperazine compound having a PGDS inhibitory effect” (2014).

biological target: Hematopoietic prostaglandin D synthase (Homo sapiens, UniProt O60760); test: Inhibiting Action: The test was carried out according to the method of Urade, Y. et al. (J. Biol. Chem., 262, 3820-3825, (1987)). More specifically, the reaction mixture (49 μL) containing 100 mM Tris-HCl (pH 8.0), 1 mM reduced glutathione, 0.1 mg/mL γ-globulin, and human H-PGDS (q.s.), and a compound (final concentration: 0.01-100 μM) was preincubated at 25C. for 5 minutes. A DMSO solution (final concentration: 1%) was added to the solvent control group. Subsequently, 1 μL of [14C] prostaglandin H2 (final concentration: 10 μM) was added to start the reaction. One minute after the start of the reaction, 250 μL of a reaction stop solution (diethylether/methanol/1 M citric acid (30/4/1) at a temperature of −20C. was added to stop the reaction. After the reaction was stopped, 50 μL of the upper-layer portion (organic solvent layer) was applied to a TLC plate and developed at −20C. for 45 minutes (developing solvent: diethylether/methanol/acetic acid (90/2/1)).
Sequence (O60760 whole entry): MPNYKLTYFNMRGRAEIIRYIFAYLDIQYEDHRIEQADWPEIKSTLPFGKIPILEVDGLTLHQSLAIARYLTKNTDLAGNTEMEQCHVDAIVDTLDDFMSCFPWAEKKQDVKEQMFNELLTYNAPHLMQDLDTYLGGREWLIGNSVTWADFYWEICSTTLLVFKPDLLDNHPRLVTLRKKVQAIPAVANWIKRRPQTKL

IC50 | Structure (SMILES)
334 nM | O=C(NCCN1CCOCC1)c1ccc(N2CCC(NC(=O)N3CCN(C(=O)c4ccc[nH]4)CC3)CC2)cc1
> 1000 nM | Cn1ccc(C(=O)N2CCN(C(=O)NC3CCN(c4ccc(C(=O)NCCN5CCOCC5)cc4)CC3)CC2)c1
201 nM | O=C(NCCN1CCOCC1)c1ccc(N2CCC(NC(=O)N3CCN(C(=O)c4cccs4)CC3)CC2)cc1
327 nM | O=C(NCCN1CCOCC1)c1ccc(N2CCC(NC(=O)N3CCN(C(=O)c4ccsc4)CC3)CC2)cc1
445 nM | O=C(NCCN1CCOCC1)c1ccc(N2CCC(NC(=O)N3CCN(C(=O)c4ccco4)CC3)CC2)cc1
> 1000 nM | O=C(NCCN1CCOCC1)c1ccc(N2CCC(NC(=O)N3CCN(C(=O)c4ccoc4)CC3)CC2)cc1
> 1000 nM | O=C(NCCN1CCOCC1)c1ccc(N2CCC(NC(=O)N3CCN(C(=O)c4ccno4)CC3)CC2)cc1
249 nM | O=C(NCCN1CCOCC1)c1ccc(N2CCC(NC(=O)N3CCN(C(=O)c4ccccc4)CC3)CC2)cc1

More lines, now with the values behind:

Structure (SMILES) | IC50
O=C(Nc1nc2ccc(Br)cc2s1)N1CCN(C(=O)c2cccc(F)c2)CC1 | 106 nM
Cc1cc2nc(NC(=O)N3CCN(C(=O)c4cccc(F)c4)CC3)sc2cc1C | 222 nM
Cc1ccc2nc(NC(=O)N3CCN(C(=O)c4cccc(F)c4)CC3)sc2c1 | 260 nM
COc1ccc2nc(NC(=O)N3CCN(C(=O)c4cccc(F)c4)CC3)sc2c1 | 318 nM
O=C(Nc1nc2ccc(Cl)cc2s1)N1CCN(C(=O)c2cccc(F)c2)CC1 | 204 nM
Cc1cc(C)c(C(=O)N2CCN(C(=O)NC3CCN(c4ccc(C(=O)NCCN5CCOCC5)cc4)CC3)CC2)[nH]1 | > 1000 nM
Cn1ccnc1C(=O)N1CCN(C(=O)NC2CCN(c3ccc(C(=O)NCCN4CCOCC4)cc3)CC2)CC1 | > 1000 nM
O=C(NCCN1CCOCC1)c1ccc(N2CCC(NC(=O)N3CCN(C(=O)C4CCCC4)CC3)CC2)cc1 | > 1000 nM
